Laboratory results taken from PubChem BioAssay (NCI).
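Results reflect a 48-hour exposure of cells in 96-well plates to compound at five concentrations. At the TGI there is no net growth.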

Columns and labels:
Test in all cases: inhibition of tumour cell growth, NCI panel, 48 h
[1] = test system: SW-620 colon
[2] = test system: HL-60(TB) leukemia
[3] = test system: RXF 393 renal
[4] = test system: CAKI-1 renal
[5] = test system: NCI-H23 lung
[6] = test system: HCC-2998 colon
[7] = test system: SNB-75 CNS
[8] = test system: SF-295 CNS
[9] = test system: MOLT-4 leukemia
[10] = test system: MALME-3M melanoma
[11] = test system: SR leukemia
[12] = test system: M14 melanoma
[13] = test system: HOP-62 NSCLC
[14] = test system: SK-MEL-28 melanoma
[15] = test system: IGROV1 ovarian
[16] = test system: UACC-257 melanoma
[17] = test system: OVCAR-8 ovarian
[18] = test system: A549 NSCLC
[19] = test system: RPMI-8226 leukemia
[20] = test system: HT29 colon
[21] = test system: COLO 205 colon
[22] = test system: MCF7 breast
[23] = test system: MDA-MB-231 breast
[24] = test system: DU-145 prostate
[25] = test system: CCRF-CEM leukemia
[26] = test system: LOX IMVI melanoma
[27] = test system: EKVX NSCLC
[28] = test system: MDA-N
[29] = test system: 786-0 renal
[30] = test system: PC-3 prostate
[31] = test system: SN12C renal
[32] = test system: KM12 colon
[33] = test system: SK-OV-3 ovarian
[34] = test system: K-562 leukemia
[35] = test system: HCT-15 colon
[36] = test system: TK-10 renal
[37] = test system: T-47D breast
[38] = test system: SK-MEL-5 melanoma
[39] = test system: UACC-62 melanoma
[40] = test system: OVCAR-3 ovarian
[41] = test system: OVCAR-5 ovarian
[42] = test system: OVCAR-4 ovarian
[43] = test system: NCI/ADR-RES ovarian
[44] = test system: NCI-H522 lung
[45] = test system: NCI-H226 lung
[46] = test system: HOP-92 NSCLC
[47] = test system: U251 CNS
[48] = test system: BT-549 breast
[49] = test system: UO-31 renal
[50] = test system: SK-MEL-2 melanoma
[51] = test system: MDA-MB-435
[52] = test system: SNB-19 CNS

## CC(=O)OCC12CCC3C4(C)CCCC(C)(C)C4CCC3(C)C1CC(C1=CC(=O)OC1O)O2 (stereo not given)
[1]
  TGI: 6.47 µM
[2]
  TGI: 2.76 µM
[3]
  TGI: 3.82 µM
[4]
  TGI: 2.81 µM
[5]
  TGI: 3.86 µM
[6]
  TGI: 3.67 µM
[7]
  TGI: 3.32 µM
[8]
  TGI: 5.56 µM
[9]
  TGI: 0.797 µM
[10]
  TGI: 2.44 µM
[11]
  TGI: 0.846 µM
[12]
  TGI: 2.96 µM
[13]
  TGI: 6.45 µM
[14]
  TGI: 3.44 µM
[15]
  TGI: 3.6 µM
[16]
  TGI: 3.63 µM
[17]
  TGI: 3.91 µM
[18]
  TGI: > 10 µM
[19]
  TGI: > 10 µM
[20]
  TGI: 3.58 µM
[21]
  TGI: 4.18 µM
[22]
  TGI: > 10 µM
[23]
  TGI: 4.44 µM
[24]
  TGI: 6.64 µM
[25]
  TGI: > 10 µM
[26]
  TGI: 2.54 µM
[27]
  TGI: 5.92 µM
[28]
  TGI: 2.89 µM
[29]
  TGI: 2.28 µM
[30]
  TGI: 2.63 µM
[31]
  TGI: 3.09 µM
[32]
  TGI: 3.54 µM
[33]
  TGI: 6.32 µM
[34]
  TGI: 4.72 µM
[35]
  TGI: 2.5 µM
[36]
  TGI: 3.31 µM
[37]
  TGI: > 10 µM
[38]
  TGI: 3.44 µM
[39]
  TGI: 4.82 µM

## COc1ccccc1C1(C)SCc2nc3ccccc3n21 (stereo not given)
[1]
  TGI: > 10 µM
[2]
  TGI: > 10 µM
[40]
  TGI: > 10 µM
[41]
  TGI: > 10 µM
[5]
  TGI: > 10 µM
[42]
  TGI: > 10 µM
[9]
  TGI: > 10 µM
[10]
  TGI: > 10 µM
[43]
  TGI: > 10 µM
[44]
  TGI: > 10 µM
[11]
  TGI: > 10 µM
[12]
  TGI: > 10 µM
[45]
  TGI: > 10 µM
[46]
  TGI: > 10 µM
[47]
  TGI: > 10 µM
[48]
  TGI: > 10 µM
[49]
  TGI: > 10 µM
[22]
  TGI: > 10 µM
[50]
  TGI: > 10 µM
[24]
  TGI: > 10 µM
[25]
  TGI: > 10 µM
[26]
  TGI: > 10 µM
[28]
  TGI: > 10 µM
[30]
  TGI: > 10 µM
[31]
  TGI: > 10 µM
[32]
  TGI: > 10 µM
[34]
  TGI: > 10 µM
[35]
  TGI: > 10 µM
[36]
  TGI: > 10 µM
[51]
  TGI: > 10 µM
[52]
  TGI: > 10 µM
